# Experimental data from patent US10646567B2, “Methods of treating cancer using PD-1 axis binding antagonists and MEK inhibitors” (Genentech, Inc., priority 2011, dated 2020).
# Legend:
# [1] = system: human melanoma cell lines and human colorectal cell lines; assay: Surface MHC-I expression on human tumor cell lines (FACS); type: cell-based; conditions: 1 micromolar, 24 hours, compared to vehicle treated cells
# Method: To determine if treatment with MEK inhibitor (MEKi) enhanced immunogenicity of tumor cells, surface expression of MHC-I on tumor cell lines treated with MEK inhibitors GDC-0973 and G-38963 was assayed. Briefly, human melanoma cell lines (Malme-3M, A2058, […][…], SK23, SKMEL-28, 537 Mel, RPMI-795) and human colorectal cell lines (Colo 320 DM, Colo 205, WiDr, Colo 741, RKO, DLD-1, HM7, HCT-15) were treated with 1 micromolar […]-0973 or G-38963, BRAF inhibitor (BRAFi) GDC-0879, or DMSO vehicle for 24 hours. Following treatment, cells were stained for surface MHC Class I expression with an antibody against […] for subsequent FACS analysis. Data shown is for treatment […]-0973. Labeled isotype-matched antibodies were used to determine the level of non-specific staining.
# [2] = system: mouse tumor cell lines (MC38, B16.F10, CT26); assay: Surface MHC-I expression on mouse tumor cell lines (FACS); type: cell-based; conditions: 1 micromolar, 24 hours, compared to vehicle treated cells
# Method: To determine if treatment with MEK inhibitor (MEKi) enhanced immunogenicity of mouse tumor cells similarly to human tumor cells, surface expression of MHC-I on mouse tumor cell lines treated with MEKi GDC-0973 was assayed. Briefly, mouse melanoma cell lines ([…]) and a mouse colorectal cell line (CT26) were treated with MEKi GDC-0973, G-38963 or vehicle. Briefly, cells were stimulated for 24 hours with 1 micromolar MEK inhibitor or DMSO vehicle control. Following treatment, cells were surfaced stained with an antibody against MHC-I (H-2D) and expression was assayed by subsequent FACS analysis. Labeled isotype-matched antibodies were used to determine the level of non-specific staining.
# [3] = system: human peripheral blood mononuclear cells; assay: Surface MHC-I expression on human PBMCs (FACS); type: cell-based; conditions: 1 μM or 3 μM, 24 hours; CD4+ T cells, CD8+ T cells, B cells, monocytes; compared to vehicle
# Method: To determine if enhanced cell surface expression of MHC-I is specific to tumor cells, the effect of MEKi treatment on MHC-I expression on human peripheral blood mononuclear cells (PMBCs) was assayed. Briefly, PMBCS were isolated from whole blood by first diluting it with an equal volume of room temperature PBS and subsequent overlay onto Ficoll-filled Leucosep tubes (Greiner Bio-One). […] Gluta-MAX, sodium pyruvate, penicillin/streptomycin, and non-essential amino acids). Cells were plated in 6 well plates at 4×10^6 per well with a total of 4 ml per well. MEK inhibitor GDC-0973 was added at either 1 μM or 3 μM. Cells were harvested 24 hours later and distributed to a 96-well V-bottom plate for FACS staining. […] CD3-FITC, HLA-ABC-PE, CD4-APC, CD19-FITC, and CD14-FITC. Propidium iodide was included to exclude dead cells. Samples were run on a BD FACSCaliber flow cytometer and data was analyzed using FlowJo software (Tree Star, Inc.).
# [4] = system: human monocyte-derived dendritic cells; assay: Maturation and activation of monocyte-derived dendritic cells with anti-CD40 (FACS); type: cell-based; conditions: for frequency of DCs expressing surface markers of DC maturation and activation: increasing concentrations 0.001 μM to 10 μM, anti-CD40 co-stimulation
# Method: Briefly, human monocytes were purified from whole blood using StemCell Technologies human monocyte RosetteSep as per manufacturer's instructions. Monocytes were seeded in T175 flasks at approximately 0.5-1.0×10^6 per ml in 50 ng/ml human GM-CSF and 100 ng/ml human IL-4 for 7 days total, with half-media exchanges every 2 days. […] MEK inhibitors and BRAF inhibitor were titrated 10-fold from 10 μM to 0.001 μM such that the final culture concentration was 0.5% DMSO in a total volume of 200 μl per well. Forty-eight hours later, cells were harvested and transferred to a 96-well V-bottom plate. […] HLA-DR,-DP,-DQ-FITC, HLA-ABC-PE, CD83-APC, CD14-FITC, CD80-PE, and CD86-APC. Propidium iodide was included to exclude dead cells. Samples were run on a BD FACSCaliber flow cytometer and data was analyzed using FlowJo software (Tree Star, Inc.).
# human CD8+ T cells = assay: CD8+ T cell proliferation (3H-thymidine); type: cell-based; conditions: for T cell receptor induced proliferation, anti-CD3 stimulation: 0.01 μM MEKi; for T cell activation, co-stimulation with anti-CD3 and anti-CD28: 10 μM to 0.001 μM MEKi; for T cell proliferation, anti-CD3 stimulation: all MEKi concentrations tested (10 μM to 0.001 μM)
# Method: Recent studies have shown that MEK inhibitor treatment impairs T lymphocyte function (Boni et al., Cancer Res., 70(13), 2010). To confirm that MEK inhibitor treatment impaired CD8+ T cells, T cells were treated with MEKi in combination with T cell stimulation signals and assayed for T cell proliferation. Briefly, human CD8+ T cells were purified from whole blood using StemCell Technologies human CD8 RosetteSep as per manufacturer's instructions. Purified cells were plated at 200,000 per well in triplicate in 96-well U-bottom plates with 200,000 per well of either anti-CD3 or anti-CD3/anti-CD28 Dynabeads (Invitrogen). MEK inhibitors GDC-0973 and G-38963 were titrated 10-fold from 10 μM to 0.001 μM such that the final culture concentration was 0.5% DMSO in a total volume of 200 μl per well. […] Gluta-MAX, sodium pyruvate, penicillin/streptomycin, and non-essential amino acids. At 48 hours, wells were pulsed with 1 μCi/well of 3H-thymidine and cultured an additional 16 hours prior to freezing and harvest.
# [5] = system: CT26 murine colorectal cells; assay: CT26 colorectal tumor model, GDC-0973 dose study (first study); type: in vivo, BALB/c mice
# Method: For the first study, female BALB/c mice were inoculated subcutaneously in the unilateral thoracic region with 100,000 CT26 murine colorectal cells in 100 μL of HBSS:matrigel. […] Groups of 10 mice were orally given the following in a volume of 200 μl daily for 21 days: Group 1 received MCT vehicle; Group 2 received 0.5 mg/kg GDC-0973; Group 3 received 1.0 mg/kg GDC-0973; Group 4 received 2.0 mg/kg GDC-0973; Group 5 received 3.0 mg/kg GDC-0973; Group 6 received 4.0 mg/kg GDC-0973; Group 7 received 5.0 mg/kg GDC-0973; Group 8 received 6.0 mg/kg GDC-0973; and Group 9 received 7.5 mg/kg GDC-0973. For both studies, mice were monitored for tumor growth and body weight changes two to three times per week for the duration of the study. […] Fred V. Fowler Company; Newton, Mass.) with length and width measurements perpendicular to one another, and tumor volume was calculated using the equation: Tumor Volume (mm^3)=(Length×Width^2)×0.5 For measurement of body weights, mice were weighed using an Adventura Pro AV812 scale (Ohaus Corporation; Pine Brook, N.J.). Percent body weight change was calculated using the equation: Body weight change (%)=[(WeightDay new−WeightDay 0)/WeightDay 0]×100 Data was analyzed using R, version 2.9.2 (R Development Core Team 2008; R Foundation for Statistical Computing; Vienna, Austria), and the mixed models were fit within R using the nlme package, version 3.1-96 (Pinheiro J et al., R package version 3. 2009, 1-96). Plotting was performed in Prism, version 5.0b for Mac (GraphPad Software, Inc.; La Jolla, Calif.). A mixed modeling approach was used to analyze the repeated measurement of tumor volumes from the same animals over time (Pinheiro J et al., Statistics and Computing, Springer. 2010). This approach addressed both repeated measurements and modest dropouts before study end for reasons classifiable statistically as missing at random (MAR). The fixed effect changes in log2 (volume) by time and dose are modeled as the sum of the main effects and interaction of a natural cubic regression spline basis in time with an auto-determined natural spline basis in dose. Intercepts and growth rates (slopes) were assumed to vary randomly by animal. […] Complete Response (CR) was defined as an individual animal whose tumor volume fell below the Limit of Detection (LOD), at any time during the study. Partial Response (PR) was defined as an individual animal whose tumor volume decreased by 50% of its initial tumor volume at any time during the study. Overall Response Rate (ORR) was defined as the sum of the complete and partial responses. Time To Progression 5X (TTP5X) was defined as the time in days for a group's fitted tumor volume (based upon the mixed modeling analysis described above) to exceed 5 times the starting volume, rounded to the nearest half day and reported as the TTP5X for that group. Linear mixed-effects analysis was also employed to analyze the repeated measurement of body weight changes from the same animals over time.
# [6] = system: CT26 murine colorectal cells; assay: CT26 colorectal tumor model, anti-PD-L1 and GDC-0973 combination (second study); type: in vivo, BALB/c mice; conditions: GDC-0973 7.5 mg/kg orally daily for 21 days
# Method: For the second study, female BALB/c mice were inoculated subcutaneously in the unilateral thoracic region with 100,000 CT26 murine colorectal cells in 100 μL of HBSS:matrigel. When mice achieved a mean tumor volume of approximately 200 mm3, they were randomly assigned to one of six different treatment groups on experimental day 0 and treatment was initiated on experimental day 1.
# For both studies, mice were monitored for tumor growth and body weight changes two to three times per week for the duration of the study. For measurement of tumor growth, tumor volume was measured using UltraCal-IV calipers (Model 54-10-111; Fred V. Fowler Company; Newton, Mass.) with length and width measurements perpendicular to one another, and tumor volume was calculated using the equation: Tumor Volume (mm^3)=(Length×Width^2)×0.5
# Data was analyzed using R, version 2.9.2 (R Development Core Team 2008; R Foundation for Statistical Computing; Vienna, Austria), and the mixed models were fit within R using the nlme package, version 3.1-96 (Pinheiro J et al., R package version 3. 2009, 1-96). […] A mixed modeling approach was used to analyze the repeated measurement of tumor volumes from the same animals over time (Pinheiro J et al., Statistics and Computing, Springer. 2010). This approach addressed both repeated measurements and modest dropouts before study end for reasons classifiable statistically as missing at random (MAR). The fixed effect changes in log2 (volume) by time and dose are modeled as the sum of the main effects and interaction of a natural cubic regression spline basis in time with an auto-determined natural spline basis in dose. Intercepts and growth rates (slopes) were assumed to vary randomly by animal. Tumor growth inhibition as a percentage of the control-treated group (% TGI) was calculated as the percentage of the area under the fitted curve (AUC) for the respective treatment group per day in relation to the control while the control treated mice were still on study, using the equation: % TGI=100×(1−AUCdose/AUCvehicles)
# [7] = system: mouse bone marrow dendritic cells; assay: Activation of mouse bone marrow derived dendritic cells (FACS); type: cell-based; conditions: GDC-0973 1 μM, anti-PD-L1 10 μg/ml, 48 hours
# Method: Briefly, mouse bone marrow cells were isolated and seeded at 2×10^6 per 10 ml total volume per 10 cm non-tissue culture treated dishes with 40 ng/ml mouse GM-CSF for 7 days. Fresh media was half-exchanged every 2-3 days. Culture medium was RPMI-1640 with 10% fetal bovine serum, 20 μM HEPES, 55 μM 2-mercaptoethanol, 50 μg/ml gentamicin, and 1:100 dilutions of the following supplements from Gibco: Gluta-MAX, sodium pyruvate, penicillin/streptomycin, and non-essential amino acids. On day 7 all cells were harvested and washed, then seeded at 100,000 cells/well in a 96-well flat-bottom plate. MEK inhibitor GDC-0973 was added at a final concentration of 1 μM, anti-PDL1 human/mouse reverse chimera or anti-Ragweed mouse IgG2a isotype control (Genentech PUR 22251) were added at 10 μg/ml. […] After 48 hours of stimulation, cells were harvested and transferred to a 96-well V-bottom plate. Samples were first Fc receptor blocked (purified anti-CD16/CD32 from BD Biosciences, 5 μg/ml) and then stained with I-A/I-E-FITC, H-2Db/H-2Kb-biotin (followed by streptavidin-PE), CD11c-APC, CD86-FITC, and CD80-PE (all from BD Biosciences). Propidium iodide was included to exclude dead cells. Samples were run on a BD FACSCaliber flow cytometer and data was analyzed using FlowJo software (Tree Star, Inc.).
# [8] = system: Cloudman S91 melanoma tumors; assay: Melanoma tumor mouse model; type: in vivo, mice; conditions: anti-PD-L1 10 mg/kg ip 3x/week for 3 weeks; G-38963 75 mg/kg orally daily 21 days
# Method: To determine if MEKi enhanced the anti-tumor effect of anti-PD-L1 antibodies, mouse models for melanoma tumors were treated with the combination treatment. Briefly, mice were inoculated subcutaneously with tumor cells and allowed to grow tumors. When tumor bearing mice achieved a mean tumor volume of 100-200 mm3, mice were randomly assigned to 1 of 4 treatment groups. […] Mice were monitored for tumor growth and body weight changes.
# colorectal tumors = assay: Colorectal tumor mouse model, G-38963 and anti-PD-L1; type: in vivo, mice; conditions: early (200 mm3) or late (450 mm3) intervention; anti-PD-L1 10 mg/kg ip 3x/week for 3 weeks; G-38963 75 mg/kg orally daily 21 days
# Method: To determine if MEKi enhanced the anti-tumor effect of anti-PD-L1 antibodies, mouse models for colorectal tumors were treated with the combination treatment. Briefly, mice were inoculated subcutaneously with tumor cells and allowed to grow tumors. When tumor bearing mice achieved a mean tumor volume of 200 mm3 (FIG. 7A) or 450 mm3 (FIG. 7B), mice were randomly assigned to 1 of 4 treatment groups. […] Mice were monitored for tumor growth and body weight changes.
# [9] = system: serum IL-10 and KC in tumor bearing animals; assay: Serum cytokine levels in tumor bearing mice (Bio-Plex); type: in vivo; conditions: melanoma and colorectal models, 7 days after treatment
# From the text: Briefly, 7 days after treatment, mice were anaesthetized and bled retro-orbitally for serum.
smiles,measurement,setting,value
"O=C(c1ccc(F)c(F)c1Nc1ccc(I)cc1F)N1CC(O)([C@@H]2CCCCN2)C1 [GDC-0973, Methanone, [3,4-difluoro-2-[(2-fluoro-4-iodophenyl)amino]phenyl][3-hydroxy-3-(2S)-2-piperidinyl-1-azetidinyl]-]",cell surface expression of MHC-I,[1],upregulated
same,cell surface expression of MHC-I,[2],upregulated
same,cell surface expression of MHC-I,[3],not upregulated
same,"frequency of cells expressing CD83, MHC-II and CD86","[4]; 1 μM, anti-CD40, 48 hours, compared to vehicle",increased
same,frequency of DCs expressing surface markers of DC maturation and activation,[4],enhanced the frequency of DCs expressing these surface markers
same,"T cell receptor induced proliferation, anti-CD3 stimulation",human CD8+ T cells,nearly complete inhibition
same,"T cell activation, co-stimulation with anti-CD3 and anti-CD28",human CD8+ T cells,sufficient to overcome the inhibitory effect of MEKi
same,"T cell proliferation, anti-CD3 stimulation",human CD8+ T cells,reduced the stimulatory effect of anti-CD3
same,% TGI,[5]; 0.5 mg/kg orally daily for 21 days,−8%
same,% TGI,[5]; 1.0 mg/kg orally daily for 21 days,−16%
same,% TGI,[5]; 2.0 mg/kg orally daily for 21 days,−21%
same,% TGI,[5]; 3.0 mg/kg orally daily for 21 days,−4%
same,% TGI,[5]; 4.0 mg/kg orally daily for 21 days,27%
same,% TGI,[5]; 5.0 mg/kg orally daily for 21 days,55%
same,% TGI,[5]; 6.0 mg/kg orally daily for 21 days,72%
same,% TGI,[5]; 7.5 mg/kg orally daily for 21 days,87%
same,tumor growth,"[5]; increasing doses, maximal inhibition at 7.5 mg/kg at 20 days post-treatment",suppressed tumor growth
same,% CR,[6],0%
same,% PR,[6],10%
same,% TGI,[6],71%
same,TTP5X,[6],21.5 days
same,"DC surface activation markers MHC-II, CD80, CD86",[7],enhanced
same,DC surface expression of MHC-I,[7],enhanced
O=C(NOCCO)c1oc2ccncc2c1Nc1ccc(I)cc1F [Compound G-38963],cell surface expression of MHC-I,[1],upregulated
same,cell surface expression of MHC-I,[2],upregulated
same,frequency of DCs expressing surface markers of DC maturation and activation,[4],enhanced the frequency of DCs expressing these surface markers
same,tumor growth,[8],highly effective as a single agent therapy at preventing tumor growth
same,tumor growth,colorectal tumors,highly effective as a single agent therapy at preventing tumor growth
same,"T cell receptor induced proliferation, anti-CD3 stimulation",human CD8+ T cells,nearly complete inhibition
same,"T cell activation, co-stimulation with anti-CD3 and anti-CD28",human CD8+ T cells,sufficient to overcome the inhibitory effect of MEKi
same,"T cell proliferation, anti-CD3 stimulation",human CD8+ T cells,reduced the stimulatory effect of anti-CD3
same,serum IL-10 level,[9],decreased
